# Data taken from patent publication US20230293526A1, “METHOD FOR TREATING CANCER WITH A REVERSE TRANSCRIPTASE INHIBITOR” (PrimeFour Therapeutics, Inc., priority 2020, published 2023).
# Assays:
# Assay type in all cases: cell-based
# UO31 = experiment: Cell proliferation Ex.3; settings: Homo sapiens, UO-31
# OVCAR4 = experiment: Cell proliferation Ex.3; settings: Homo sapiens, OVCAR-4
# HEK293 = experiment: Cell proliferation Ex.3; settings: Homo sapiens
# HS578T = experiment: Cell proliferation Ex.3; settings: Homo sapiens, Hs-578T
# SKOV3 = experiment: Cell proliferation Ex.3; settings: Homo sapiens, SK-OV-3
# SW620 = experiment: Cell proliferation Ex.3; settings: Homo sapiens, SW-620
# JAR = experiment: Cell proliferation Ex.3
# HS729 = experiment: Cell proliferation Ex.3
# HT1080 = experiment: Cell proliferation Ex.3; settings: Homo sapiens, HT-1080
# EJ28 = experiment: Cell proliferation Ex.3; settings: Homo sapiens, EJ-28
# A204 = experiment: Cell proliferation Ex.3; settings: Homo sapiens
# BT20 = experiment: Cell proliferation Ex.3; settings: Homo sapiens, BT-20
# Procedure, shortened: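 Cells were seeded and held overnight at 37 °C, then exposed to a compound dilution series for […] at 37 °C under 5% or 10% CO2 depending on medium. Viability was read by CellTiterGlo luminescence and expressed as percent relative to high and low controls.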
# 786O = experiment: Cell proliferation Ex.3; settings: Homo sapiens
# MDAMB468 = experiment: Cell proliferation Ex.3; settings: Homo sapiens, MDA-MB-468
# SKNAS = experiment: Cell proliferation Ex.3; settings: Homo sapiens, SK-N-AS
# J82 = experiment: Cell proliferation Ex.3; settings: Homo sapiens
# IGROV1 = experiment: Cell proliferation Ex.3; settings: Homo sapiens, IGROV-1
# SKLMS1 = experiment: Cell proliferation Ex.3; settings: Homo sapiens, SK-LMS-1
# SK-N-MC = experiment: Cell proliferation CellTiterGlo Ex.2; settings: Homo sapiens; SK-N-MC (Brain), 72 h
# Procedure: (§1) A dose response relationship on cell proliferation was assessed for Compound 13 on 140 tumor cell lines. Briefly, compound treatment of cells started one day after seeding with a final DMSO concentration of 0.100, and was performed by nanodrop-dispensing using a Tecan Dispenser. 0.10% DMSO (solvent) and Staurosporine (10 μM) served as high control (10000 viability) and low control (000 viability), respectively. Compound 13 was tested at 10, 3, 1, 0.3, 0.1, 0.03, 0.01, and 0.003 μM.
# (§2) Cells were cultured in the appropriate media. For the assays, cells were seeded in white cell culture-treated flat and clear bottom multiwell plates and incubated at 37° C. overnight before compound was added. After incubation for 72 h at 37° C. at 5% or 10% CO2 dependent on the medium, cell plates were equilibrated to room temperature for one hour, CellTiterGlo reagent (Promega) was added and luminescence was measured approximately an hour later using a luminometer.
# (§3) Raw data were converted into percent cell viability relative to the high and low control, which were set to 10000 and 000, respectively.
# Caki-1 = experiment: Cell proliferation CellTiterGlo Ex.2; settings: Homo sapiens; Caki-1 (Kidney), 72 h
# Procedure: as §1, §2, §3
# T-47D = experiment: Cell proliferation CellTiterGlo Ex.2; settings: Homo sapiens, T47D; T-47D (Breast), 72 h
# Procedure: as §1, §2, §3
# A431 = experiment: Cell proliferation CellTiterGlo Ex.2; settings: Homo sapiens, A-431; A431 (Skin), 72 h
# Procedure: as §1, §2, §3
# LnCap = experiment: Cell proliferation CellTiterGlo Ex.2; settings: Homo sapiens; LnCap (Prostate), 72 h
# Procedure: as §1, §2, §3
# SW948 = experiment: Cell proliferation CellTiterGlo Ex.2; settings: Homo sapiens; SW948 (Colon), 72 h
# Procedure: as §1, §2, §3
smiles,measurement,setting,value
C#C[C@]1(CO)O[C@@H](n2cc(F)c(N)nc2=O)C[C@@H]1O [compound 9],IC50,"UO31; UO31, 72 h",> 10 µM
same,IC50,"UO31; UO31, 120 h",> 10 µM
same,IC50,"UO31; UO31, 168 h",> 10 µM
same,IC50,"OVCAR4; OVCAR4, 72 h",> 10 µM
same,IC50,"OVCAR4; OVCAR4, 120 h",> 10 µM
same,IC50,"OVCAR4; OVCAR4, 168 h",> 10 µM
same,IC50,"HEK293; HEK293, 72 h",> 10 µM
same,IC50,"HEK293; HEK293, 120 h",> 10 µM
same,IC50,"HEK293; HEK293, 168 h",> 10 µM
same,IC50,HS578T; 72 h,> 10 µM
same,IC50,HS578T; 120 h,> 10 µM
same,IC50,HS578T; 168 h,> 10 µM
same,IC50,"SKOV3; SKOV3, 72 h",> 10 µM
same,IC50,"SKOV3; SKOV3, 120 h",> 10 µM
same,IC50,"SKOV3; SKOV3, 168 h",> 10 µM
same,IC50,"SW620; SW620, 72 h",> 10 µM
same,IC50,"SW620; SW620, 120 h",> 10 µM
same,IC50,"SW620; SW620, 168 h",> 10 µM
same,IC50,JAR; 72 h,> 10 µM
same,IC50,JAR; 120 h,> 10 µM
same,IC50,JAR; 168 h,> 10 µM
same,IC50,"HS729; HS729, 72 h",> 10 µM
same,IC50,"HS729; HS729, 120 h",> 10 µM
same,IC50,"HS729; HS729, 168 h",> 10 µM
same,IC50,"HT1080; HT1080, 72 h",> 10 µM
same,IC50,"HT1080; HT1080, 120 h",> 10 µM
same,IC50,"HT1080; HT1080, 168 h",> 10 µM
same,IC50,"EJ28; EJ28, 72 h",> 10 µM
same,IC50,"EJ28; EJ28, 120 h",> 10 µM
same,IC50,"EJ28; EJ28, 168 h",> 10 µM
same,IC50,"A204; A204, 72 h",> 10 µM
same,IC50,"A204; A204, 120 h",> 10 µM
same,IC50,"A204; A204, 168 h",> 10 µM
same,IC50,"BT20; BT20, 72 h",> 10 µM
same,IC50,"BT20; BT20, 120 h",> 10 µM
same,IC50,"BT20; BT20, 168 h",> 10 µM
same,IC50,"786O; 786-0, 72 h",> 10 µM
same,IC50,"786O; 786-0, 120 h",> 10 µM
same,IC50,"786O; 786-0, 168 h",> 10 µM
same,IC50,"MDAMB468; MDAMB468, 72 h",> 10 µM
same,IC50,"MDAMB468; MDAMB468, 120 h",> 10 µM
same,IC50,"MDAMB468; MDAMB468, 168 h",> 10 µM
same,IC50,SKNAS; 72 h,> 10 µM
same,IC50,SKNAS; 120 h,> 10 µM
same,IC50,SKNAS; 168 h,> 10 µM
same,IC50,"J82; J82, 72 h",> 10 µM
same,IC50,"J82; J82, 120 h",> 10 µM
same,IC50,"J82; J82, 168 h",> 10 µM
same,IC50,"IGROV1; IGROV1, 72 h",> 10 µM
same,IC50,"IGROV1; IGROV1, 120 h",> 10 µM
same,IC50,"IGROV1; IGROV1, 168 h",> 10 µM
same,IC50,"SKLMS1; SKLMS1, 72 h",> 10 µM
same,IC50,"SKLMS1; SKLMS1, 120 h",> 10 µM
same,IC50,"SKLMS1; SKLMS1, 168 h",> 10 µM
C#C[C@]1(CO)O[C@@H](n2cnc3c(=O)[nH]c(N)nc32)C[C@@H]1O [compound 13],IC50,SK-N-MC,3.19 µM
same,IC50,Caki-1,9.76 µM
same,IC50,T-47D,> 10 µM
same,IC50,A431,5.06 µM
same,IC50,LnCap,> 10 µM
same,IC50,SW948,5.02 µM
